Here are results for nine molecules from patent US8642647B2, “N1-benzo[1,3]dioxol-5-ylmethyl-N2-substituted biguanide derivative, preparation method thereof, and pharmaceutical composition containing same” (Hanall Biopharma Co., Ltd., priority 2008, dated 2014).

Counter-ions that a name gives are not always drawn.

One assay has as its system HepG2 cells. Kind of assay: Measurement of triglyceride synthesis inhibitory ability. The assay is classed as cell-based. The settings on record: 100 μM compound, 24 hours, HepG2 cells; content of triglyceride formed; lower value = stronger inhibition. The method, then:
(§1) 2 mM metformin was used as a comparative compound for each of the plates (control group).
HepG2 cells (ATCC: American Type Culture Collection) were cultured in 1% serum-containing media (DMEM (Gibco), FBS (Gibco)) for 24 hours, and then treated with 100 μM or 500 μM of each of the compounds prepared in Examples for 24 hours. Then, the cells were disrupted with a lysis solution (0.1 M potassium phosphate, pH 7.4, 0.05 M NaCl, 5 mM cholic acid, 0.1% Triton X-100). To the disrupted cells was added the same volume of a reaction solution (0.76 U/ml of a glycerol kinase (Asan Pharmaceutical Co., Ltd.), […] of a peroxidase (Asan Pharmaceutical Co., Ltd.), 22.2 U/ml of a glycerol oxidizing agent (Asan Pharmaceutical Co., Ltd.), and 300 μM of Amplex red as a fluorescent factor (Molecular Probe)), which was allowed to react at 37° C. for 30 minutes. After completion of the reaction, the content of triglyceride formed in the cell lysates was measured at a wavelength of 560/590 nm (ex/em) using a fluorescence microscope.
A lower measurement value means an increased triglyceride synthesis inhibitory ability.
`Cl.N=C(N)NC(=Nc1ccc(F)cc1)NCc1ccc2c(c1)OCO2` [Example 14, N1-benzo[1,3]dioxol-5-ylmethyl-N2-(4-fluorophenyl)biguanide hydrochloride]: the “Triglyceride (100 μM) aver.” value is 115.04.
The same measure, in the same setting: with `COc1ccc(N=C(NCc2ccc3c(c2)OCO3)NC(=N)N)cc1.Cl` [Example 15, N1-benzo[1,3]dioxol-5-ylmethyl-N2-(4-methoxyphenyl)biguanide hydrochloride] the figure was 104.17; with `CCCN=C(NCc1ccc2c(c1)OCO2)NC(=N)N.Cl` [Example 16, N1-benzo[1,3]dioxol-5-ylmethyl-N2-propyl biguanide hydrochloride], 32.56; with `C=CCN=C(NCc1ccc2c(c1)OCO2)NC(=N)N` [Example 18, N1-benzo[1,3]dioxol-5-ylmethyl-N2-allyl biguanide hydrochloride], 97.00.
For the molecule `Cl.N=C(N)NC(=NC1CCCC1)NCc1ccc2c(c1)OCO2` [Example 19, N1-benzo[1,3]dioxol-5-ylmethyl-N2-cyclopentyl biguanide hydrochloride], the “Triglyceride (100 μM) aver.” value is reported as 100.59.
As for `Cl.N=C(N)NC(=NC1CCCCCC1)NCc1ccc2c(c1)OCO2` [Example 20, N1-benzo[1,3]dioxol-5-ylmethyl-N2-cycloheptyl biguanide hydrochloride], the “Triglyceride (100 μM) aver.” value came out at 99.89.
`CC(C)N=C(NCc1ccc2c(c1)OCO2)NC(=N)N.Cl` [Example 22, N1-benzo[1,3]dioxol-5-ylmethyl-N2-isopropyl biguanide hydrochloride]: the “Triglyceride (100 μM) aver.” value is listed as 78.51.
Turning to `CC(C)CN=C(NCc1ccc2c(c1)OCO2)NC(=N)N.Cl` [Example 23, N1-benzo[1,3]dioxol-5-ylmethyl-N2-isobutyl biguanide hydrochloride], the “Triglyceride (100 μM) aver.” value stood at 84.58.
The same measure, in the same setting: the same measure for `COc1cc(N=C(NCc2ccc3c(c2)OCO3)NC(=N)N)cc(OC)c1OC.Cl` [Example 24, N1-benzo[1,3]dioxol-5-ylmethyl-N2-(3,4,5-trimethoxyphenyl)biguanide hydrochloride]: 80.30.

The assay is the same for the next values; noted with them: 500 μM compound, 24 hours, HepG2 cells; content of triglyceride formed; lower value = stronger inhibition.
On to `C=CCN=C(NCc1ccc2c(c1)OCO2)NC(=N)N` [Example 18, N1-benzo[1,3]dioxol-5-ylmethyl-N2-allyl biguanide hydrochloride], for which the “Triglyceride (500 μM) aver.” value was 46.89.
As for `Cl.N=C(N)NC(=NC1CCCC1)NCc1ccc2c(c1)OCO2` [Example 19, N1-benzo[1,3]dioxol-5-ylmethyl-N2-cyclopentyl biguanide hydrochloride], the “Triglyceride (500 μM) aver.” value worked out at 80.60.
The same measure, in the same setting: with `Cl.N=C(N)NC(=NC1CCCCCC1)NCc1ccc2c(c1)OCO2` [Example 20, N1-benzo[1,3]dioxol-5-ylmethyl-N2-cycloheptyl biguanide hydrochloride] the figure was 41.32.
On the same count and under the same terms, the same measure for `CC(C)N=C(NCc1ccc2c(c1)OCO2)NC(=N)N.Cl` [Example 22, N1-benzo[1,3]dioxol-5-ylmethyl-N2-isopropyl biguanide hydrochloride]: 60.13; for `CC(C)CN=C(NCc1ccc2c(c1)OCO2)NC(=N)N.Cl` [Example 23, N1-benzo[1,3]dioxol-5-ylmethyl-N2-isobutyl biguanide hydrochloride]: 59.80; for `COc1cc(N=C(NCc2ccc3c(c2)OCO3)NC(=N)N)cc(OC)c1OC.Cl` [Example 24, N1-benzo[1,3]dioxol-5-ylmethyl-N2-(3,4,5-trimethoxyphenyl)biguanide hydrochloride]: 60.08.

The subject of another assay is HepG2 cells. Kind of assay: Measurement of cholesterol synthesis inhibitory ability. The class given is cell-based. The settings on record: 100 μM compound versus 2 mM metformin. The procedure: as §1
A cholesterol synthesis inhibitory ability, which is an important function of AMPK (AMP-activated protein kinase), was measured using HepG2 cells (ATCC: American Type Culture Collection) as a hepatic cell model according to the following procedure.
The hepatic cell model HepG2 cells were cultured in 1% serum-containing media (DMEM (Gibco), FBS (Gibco)) for 24 hours, and then treated with 100 μM or 500 μM of each of the compounds prepared in Examples for 24 hours. Then, the cells were disrupted with a lysis solution (0.1 M potassium phosphate, pH 7.4, 0.05 M NaCl, 5 mM cholic acid, 0.1% Triton X-100 (Sigma)). To the disrupted cells was added the same volume of a reaction solution (2 U/ml of a cholesterol oxidizing agent, 2 U/ml of a peroxidase, 0.2 U/ml of a cholesterol esterase, and 300 μM of Amplex red as a fluorescent factor (Molecular Probe)), which was allowed to react at 37° C. for 30 minutes. After completion of the reaction, the content of cholesterol formed in the cell lysates was measured at a wavelength of 560/590 nm (ex/em) using a fluorescence microscope.
A lower measurement value means an increased cholesterol synthesis inhibitory ability.
As for `COc1ccc(N=C(NCc2ccc3c(c2)OCO3)NC(=N)N)cc1.Cl` [Example 15, N1-benzo[1,3]dioxol-5-ylmethyl-N2-(4-methoxyphenyl)biguanide hydrochloride], the “effect in inhibiting cholesterol synthesis better than that of the control group” value was “at least 20 times”.

Staying with this assay, now noted: 100 μM compound, 24 hours, HepG2 cells; content of cholesterol formed; lower value = stronger inhibition.
Turning to `Cl.N=C(N)NC(=Nc1ccc(F)cc1)NCc1ccc2c(c1)OCO2` [Example 14, N1-benzo[1,3]dioxol-5-ylmethyl-N2-(4-fluorophenyl)biguanide hydrochloride], the “Cholesterol (100 μM) aver.” value stood at 57.35.
Turning to `COc1ccc(N=C(NCc2ccc3c(c2)OCO3)NC(=N)N)cc1.Cl` [Example 15, N1-benzo[1,3]dioxol-5-ylmethyl-N2-(4-methoxyphenyl)biguanide hydrochloride], the “Cholesterol (100 μM) aver.” value is 52.95.
On to `CCCN=C(NCc1ccc2c(c1)OCO2)NC(=N)N.Cl` [Example 16, N1-benzo[1,3]dioxol-5-ylmethyl-N2-propyl biguanide hydrochloride], for which the “Cholesterol (100 μM) aver.” value came to 38.66.
The same measure, in the same setting: the same measure for `C=CCN=C(NCc1ccc2c(c1)OCO2)NC(=N)N` [Example 18, N1-benzo[1,3]dioxol-5-ylmethyl-N2-allyl biguanide hydrochloride]: 40.31; for `Cl.N=C(N)NC(=NC1CCCC1)NCc1ccc2c(c1)OCO2` [Example 19, N1-benzo[1,3]dioxol-5-ylmethyl-N2-cyclopentyl biguanide hydrochloride]: 57.58; for `Cl.N=C(N)NC(=NC1CCCCCC1)NCc1ccc2c(c1)OCO2` [Example 20, N1-benzo[1,3]dioxol-5-ylmethyl-N2-cycloheptyl biguanide hydrochloride]: 31.37.
Consider `CC(C)N=C(NCc1ccc2c(c1)OCO2)NC(=N)N.Cl` [Example 22, N1-benzo[1,3]dioxol-5-ylmethyl-N2-isopropyl biguanide hydrochloride], for which the “Cholesterol (100 μM) aver.” value came out at 63.99.
For the molecule `CC(C)CN=C(NCc1ccc2c(c1)OCO2)NC(=N)N.Cl` [Example 23, N1-benzo[1,3]dioxol-5-ylmethyl-N2-isobutyl biguanide hydrochloride], the “Cholesterol (100 μM) aver.” value is reported as 68.02.
Same read-out and setting: the same measure for `COc1cc(N=C(NCc2ccc3c(c2)OCO3)NC(=N)N)cc(OC)c1OC.Cl` [Example 24, N1-benzo[1,3]dioxol-5-ylmethyl-N2-(3,4,5-trimethoxyphenyl)biguanide hydrochloride]: 65.36.

The same assay, now with this note: 500 μM compound, 24 hours, HepG2 cells; content of cholesterol formed; lower value = stronger inhibition.
For the molecule `C=CCN=C(NCc1ccc2c(c1)OCO2)NC(=N)N` [Example 18, N1-benzo[1,3]dioxol-5-ylmethyl-N2-allyl biguanide hydrochloride], the “Cholesterol (500 μM) aver.” value turned out to be 9.71.
As to `Cl.N=C(N)NC(=NC1CCCC1)NCc1ccc2c(c1)OCO2` [Example 19, N1-benzo[1,3]dioxol-5-ylmethyl-N2-cyclopentyl biguanide hydrochloride], the “Cholesterol (500 μM) aver.” value came out at 27.93.
On to `Cl.N=C(N)NC(=NC1CCCCCC1)NCc1ccc2c(c1)OCO2` [Example 20, N1-benzo[1,3]dioxol-5-ylmethyl-N2-cycloheptyl biguanide hydrochloride], for which the “Cholesterol (500 μM) aver.” value was −14.69.
In the case of `CC(C)N=C(NCc1ccc2c(c1)OCO2)NC(=N)N.Cl` [Example 22, N1-benzo[1,3]dioxol-5-ylmethyl-N2-isopropyl biguanide hydrochloride], the “Cholesterol (500 μM) aver.” value came to 34.97.
With `CC(C)CN=C(NCc1ccc2c(c1)OCO2)NC(=N)N.Cl` [Example 23, N1-benzo[1,3]dioxol-5-ylmethyl-N2-isobutyl biguanide hydrochloride], the “Cholesterol (500 μM) aver.” value is given as 36.29.
On to `COc1cc(N=C(NCc2ccc3c(c2)OCO3)NC(=N)N)cc(OC)c1OC.Cl` [Example 24, N1-benzo[1,3]dioxol-5-ylmethyl-N2-(3,4,5-trimethoxyphenyl)biguanide hydrochloride], for which the “Cholesterol (500 μM) aver.” value turned out to be 31.14.

In a further assay the test system is HepG2 cells. Kind of assay: Measurement of gluconeogenesis inhibitory ability. The assay is classed as cell-based. To be noted: Homo sapiens, HepG2, 24 h, 100 μM compound, 24 hours, HepG2 cells; content of glucose formed from 14C-lactate; lower value = stronger inhibition; read-out: Gluconeogenesis inhibition (100 μM) aver. The procedure:
as §1
HepG2 cells (ATCC: American Type Culture Collection) were cultured in 10% serum-containing high glucose media, transferred to no serum-containing low glucose media (DMEM (Gibco), FBS (Gibco)), and then treated with 100 μM of each of the compounds for 24 hours. Then, the cells were treated with 0.5 μCi ^14C-lactate (Amersham Pharmacia) and 10 mM L-lactate (Sigma), and cultured for 4 hours. After cultivation, the media were removed therefrom, and the cells were washed with PBS, treated with 0.1N NaOH and kept at room temperature for 1 hour. Then, the cells were neutralized with 1N HCl, and the content of glucose formed in the cells was measured with a liquid scintillation counter.
A lower measurement value means an increased gluconeogenesis inhibitory ability.
Consider `Cl.N=C(N)NC(=Nc1ccc(F)cc1)NCc1ccc2c(c1)OCO2` [Example 14, N1-benzo[1,3]dioxol-5-ylmethyl-N2-(4-fluorophenyl)biguanide hydrochloride], for which the activity at 100 µM is 102%.
Consider `COc1ccc(N=C(NCc2ccc3c(c2)OCO3)NC(=N)N)cc1.Cl` [Example 15, N1-benzo[1,3]dioxol-5-ylmethyl-N2-(4-methoxyphenyl)biguanide hydrochloride], for which the activity at 100 µM is 75.6%.
Take `CCCN=C(NCc1ccc2c(c1)OCO2)NC(=N)N.Cl` [Example 16, N1-benzo[1,3]dioxol-5-ylmethyl-N2-propyl biguanide hydrochloride]: the activity at 100 µM worked out at 33.1%.
The same measure, in the same setting: with `C=CCN=C(NCc1ccc2c(c1)OCO2)NC(=N)N` [Example 18, N1-benzo[1,3]dioxol-5-ylmethyl-N2-allyl biguanide hydrochloride] the figure was 95.1%.
`Cl.N=C(N)NC(=NC1CCCC1)NCc1ccc2c(c1)OCO2` [Example 19, N1-benzo[1,3]dioxol-5-ylmethyl-N2-cyclopentyl biguanide hydrochloride]: the activity at 100 µM was found to be 92.7%.
For the molecule `Cl.N=C(N)NC(=NC1CCCCCC1)NCc1ccc2c(c1)OCO2` [Example 20, N1-benzo[1,3]dioxol-5-ylmethyl-N2-cycloheptyl biguanide hydrochloride], the activity at 100 µM stood at 39.4%.
With `CC(C)N=C(NCc1ccc2c(c1)OCO2)NC(=N)N.Cl` [Example 22, N1-benzo[1,3]dioxol-5-ylmethyl-N2-isopropyl biguanide hydrochloride], the activity at 100 µM is 83%.
The same measure, in the same setting: with `CC(C)CN=C(NCc1ccc2c(c1)OCO2)NC(=N)N.Cl` [Example 23, N1-benzo[1,3]dioxol-5-ylmethyl-N2-isobutyl biguanide hydrochloride] the figure was 100%; with `COc1cc(N=C(NCc2ccc3c(c2)OCO3)NC(=N)N)cc(OC)c1OC.Cl` [Example 24, N1-benzo[1,3]dioxol-5-ylmethyl-N2-(3,4,5-trimethoxyphenyl)biguanide hydrochloride], 88.7%.
